The results in this text go back to patent publication US20070202138A1, “ANTIMICROBIAL COMPOSITIONS AND METHOD” (BIOFILM INNOVATIONS GROUP, LLC, priority 2006, published 2007).

Converted amounts (≈) assume the structure as drawn.

One series can be described thus: in vitro. The settings on record: mouse.
Series [1] can be described thus: in vitro cytotoxicity, plating efficiency. The following applies: mouse.
Method: The cells are grown in humidified incubators at 37° C. in an atmosphere of 5% carbon dioxide/air (v/v).

Turning to `CC(=O)Nc1ccc(O)cc1` [acetaminophen], the CC50 in the series “in vitro” stood at 1000 µg/mL (≈ 6.62 mM). On the same count and under the same terms, the same measure for `CC(=O)Oc1ccccc1C(=O)O` [aspirin]: 1500 µg/mL (≈ 8.33 mM).

Take `O=BOB(O)OB(O)OB=O` [borax]: in series [1], the CC50 was found to be 2000 µg/mL (≈ 12.7 mM).
